The results in this text go back to ChEMBL document CHEMBL1151082, “Structure-directed discovery of an inhibitor of the binding of HIV GP120 to the CD4 receptor” (Bioorg Med Chem Lett, 1993).

Assay [1] has as its target T1, Envelope glycoprotein gp160 (Human immunodeficiency virus type 1 group M subtype B (isolate HXB2)(HIV-1), UniProt P04578). Put plainly: Tested for inhibition of binding of soluble recombinant CD4-gp120 using ELISA assay; IA is Inactive. (In an ELISA, binding on a coated surface is turned into a signal by an enzyme label.)
The target of assay [2] is T1, Envelope glycoprotein gp160. Put plainly: Tested for inhibition of binding of soluble recombinant CD4-gp120 using ELISA assay.
Assay [3] has the same target. Put plainly: Tested for ability to block the CD4-gp120 interaction measured by binding of [125I]sCD4 to gp120.
Assay [4] shares this target. Put plainly: Tested in an HIV viral syncytium assay for inhibition of binding of recombinant CD4-gp120.
Assay [5] shares this target. Put plainly: Tested for rate constant of binding to inhibit soluble recombinant CD4-gp120; value ranges form 4-20 uM.

What is called IC50 is the concentration at which inhibition is half-maximal. As to `CN(C)CCNCC1CC(c2ccccc2)(c2ccccc2)C(=O)O1` (stereo unspecified), the IC50 result in assay [1] is listed as “Not Active”.
Same read-out and setting: the same measure for `CC1=NCCN1CC1CC(c2ccccc2)(c2ccccc2)C(=O)O1` (stereo unspecified): “Not Active”; for `CC1(C)CN(CC2CC(c3ccccc3)(c3ccccc3)C(=O)O2)C=N1` (stereo unspecified): “Not Active”.
Still for that read-out and setting: the same measure for `CCNCC1CC(c2ccccc2)(c2ccccc2)C(=O)O1` (stereo unspecified): “Not Active”; for `O=C1OC(CBr)CC1(c1ccccc1)c1ccccc1` (stereo unspecified): “Not Active”.
Consider `COC(=O)C(=O)N1CCC[C@@H]1C(=O)N[C@H](Cc1ccccc1)C(=O)OCc1ccccc1`, for which, in assay [2], the IC50 came to 300 µM.
In the case of `CCN(CCCl)CC1CC(c2ccccc2)(c2ccccc2)C(=O)O1` (stereo unspecified), the results for the half-inhibitory concentration (IC50) in assay [3], in assay [2] and in assay [4] were 30 µM, 35 µM and 100 µM, respectively.
`CCN(Cc1ccccc1)CC1CC(c2ccccc2)(c2ccccc2)C(=O)O1` (stereo unspecified): the IC50 result in assay [1] is “Not Active”.
Turning to `CCN(CC1CC(c2ccccc2)(c2ccccc2)C(=O)O1)C(=O)C(=O)OC` (stereo unspecified), in assay [1], the IC50 entry is “Not Active”.
The same measure, in the same setting: the same measure for `O=C1OC(C[N+]23CCC(CC2)CC3)CC1(c1ccccc1)c1ccccc1.[Br-]` (stereo unspecified): “Not Active”; for `CCN(CCN(C)C)CC1CC(c2ccccc2)(c2ccccc2)C(=O)O1` (stereo unspecified): “Not Active”; for `CCCCN(CCCC)CC1CC(c2ccccc2)(c2ccccc2)C(=O)O1` (stereo unspecified): “Not Active”.
By Kd is commonly meant the concentration at which binding is half-saturated. Turning to `CC(C)C[C@H](NC(=O)[C@H](Cc1ccccc1)N1NC(=O)[C@H]([C@@H](N)CO)CCC(=O)N[C@@H](CO)C1=O)C(=O)N[C@H](C(=O)NCc1ccccc1)[C@@H](C)O`, the IC50 in assay [2] was over 100 µM. The Kd in assay [5] came to 4 µM.
